These results are taken from patent US20240165150A1, “COMBINATION FOR TREATMENT OF THROMBOINFLAMMATION” (TX MEDIC AB, priority 2021, published 2024).

Holding throughout (type): cell-based
Experiment [1] relates to human whole blood. Briefly: Cytokine analysis by electrochemiluminescence in blood loop system. How it is done: (§1) Materials and Methods Dextran sulfate (IBsolvMIR®, Tikomed AB, Viken, Sweden, WO 2016/076780), heparin (Heparin LEO®, LEO Pharma, cat. No. 585679) and WI-38 cells (American Type Culture Collection (ATCC)) were administered to blood loops as shown in Table 1. Vehicle was an aqueous 0.9% NaCl solution. Each loop contained in total 2 ml of freshly taken human whole blood from three blood donors. Reagents were added to the loops according to Table 1 and the loops were set to rotate at 37° C. Blood samples were taken at the zero, 15 min, 1 hour and 4 hour time points.
Blood was extracted from loops at the zero and 4 hour time points and cytokines were analyzed by electrochemiluminescence (ECL) in multiplex mode using MESO QuickPlex SQ 120 (Mesoscale Discovery).

In experiment [2] the test system is human whole blood. Briefly: Flow cytometry analysis of blood from blood loops. The settings on record: 1 hour. How it is done: as §1
Fresh blood was collected and immediately mixed with ethylenediaminetetraacetic acid (EDTA) (zero time point samples) or added to loops followed by sampling and mixing with EDTA at the 1 hour time point. Data was analyzed using flow cytometry.
Background: Flow cytometry measures light scatter and fluorescence of single cells or particles in a stream.

In experiment [3] the test system is human whole blood. Briefly: Complement split products C3a and C5a by ELISA in blood loop system. How it is done:
as §1
Complement analysis Complement split product C3a and C5a concentrations were measured by ELISA according to the manufacturer's instructions (RayBio® Human C3a and C5a ELISA Kit for serum, plasma, and cell culture supernatants by RayBiotech) at the zero, 15 min and 1 hour time points.
(ELISA stands for enzyme-linked immunosorbent assay.)

The subject of experiment [4] is human whole blood. Description: Hematology analysis (cell counts) in IBMIR blood loop system. The conditions noted are these: WI-38 cells 1 × 10^5/2 ml, 1 hour, IBsolvMIR 0.2 mg/ml, heparin 0, 0.2 or 0.5 U/ml. As for the experimental part:
as §1
Blood samples were extracted from loops at the zero and 1 hour time points and platelets, red blood cells and white blood cells were automatically counted using a Sysmex XN-L 350 Hematology Analyzer.

For experiment [5], the system named is human whole blood. Briefly: Coagulation (blood clot size) and hemolysis in IBMIR blood loop system. How it is done:
as §1
Clot scale: 1=Small clot observed (<2 mm), 2=Medium-sized clot observed (2-5 mm), 3=Large clot observed (>5 mm), * Clot removed from loop (not noted at 4 h when all blood was removed from loop), n.s.=no sample. Hemolysis: +=hemolysis observed in blood loop.

Setting [6] is: agent alone, WI-38 cells, listed as Dextran sulfate.
The mark [7] stands for this setting: vs corresponding WI-38 treated without IBsolvMIR.
Where [8] appears, read: WI-38-treated loops, three donors.
Setting [9] is: vehicle at 0.5 U/ml heparin, donors D2 and D3, 4 hour.
Setting [10] is: heparin 0.2 or 0.5 U/ml combined with IBsolvMIR 0.2 mg/ml, WI-38 cells.

A value given as a limit tells only on which side of the number the result lay.

In the case of Dextran sulfate [IBsolvMIR®], in experiment [1] (4 hour time point), the IL-6 cytokine release result is “ambiguous”. Besides, the MCP-1 levels result in experiment [1] (IBsolvMIR alone groups vs corresponding vehicle, 4 hour) is reported as “higher than corresponding vehicle”. In addition, the MCP-1 levels result in experiment [1] (WI-38 cells with IBsolvMIR vs corresponding WI-38 alone group, 4 hour) is “slightly increased levels of MCP-1”. Moreover, the IL-8 release result in experiment [1] (vehicle and WI-38 cell-induced, 4 hour) is recorded as “clear IBsolvMIR® dependent reduction”. In experiment [2] (WI-38 cells), the “Activation of granulocytes (CD66b+)” value is on record as “overall decreased activation profile”, the “Activation of monocytes (CD14+)” value is given as “overall decreased activation profile”, the “Aggregation of platelets (decrease in proportion of single platelets)” value is given as “entirely revoked” and the “B cell count (WI-38 dependent decrease)” value is reported as “entirely reversed up to vehicle level”. Besides, in experiment [2] (WI-38 cells), the Frequency of granulocytes entry was “increased frequency” and the Frequency of monocytes entry is “increased frequency”. Moreover, in experiment [2] (WI-38 treated groups with vs without IBsolvMIR), the “TF positive cell counts” value is “about ten-fold”. In addition, in experiment [2] (agent alone, WI-38 cells), the “C5b-9 formation on platelets (proportion of C5b-9 positive platelets)” value (“C5b-9 formation on platelets” for short) was “partly reverted”, the “Platelet binding to WI-38 cells (cell transplant)” value (shortened to “Platelet binding to WI-38 cells”) is listed as “partly reverted”, the “Proportion of platelets bound to granulocytes” value was “capable of reducing” and the “Proportion of platelets bound to monocytes” value is “capable of reducing”. Besides, in experiment [2] (setting [6]), the “C5b-9 formation on platelets” value is “capable of reducing” and the “Platelet binding to WI-38 cells” value was “capable of reducing”. The “Complement activation (C5b-9) on TF positive cells” value in experiment [2] (vs WI-38 alone) is “lower”. For the same substance, in experiment [2] (setting [7]), the “Frequency of apoptotic (annexin +) TF+ cells” value is on record as “lower” and the “Frequency of dead (annexin + and/or viability dye +) TF+ cells” value is “lower”. For the same substance, the “C3a increase in WI-38 treated groups” value in experiment [3] (15 min time point) was “entirely blocked”. For the same substance, the “C5a vs corresponding treatment without IBsolvMIR” value in experiment [3] (1 hour time point) was “lower in almost every donor in every group”. Further, the “C3a vs corresponding treatment without IBsolvMIR” value in experiment [3] (no heparin, 0.2 and 0.5 U/ml heparin, with and without WI-38 cells, 15 min and 1 hour) is listed as “decreased C3a”. Moreover, the “WBC counts (WI-38 induced decrease)” value in experiment [4] was “completely rescued the WBC decrease”. In addition, the “WBC counts (WI-38 induced decrease)” value in experiment [4] (listed as dextran sulfate) is recorded as “capable of restoring WBC counts”. Further, the “Clotting, loops without WI-38 cells” value in experiment [5] (IBsolvMIR alone loops, all donors, 15 min to 4 hours) is given as “No clotting was observed”. In experiment [5] (setting [8]), the “Clotting at 15 minutes” value is reported as “no clotting was observed” and the “Clotting at one hour” value was “medium-sized clots were observed in two WI-38+IBsolvMIR® loops”.
Turning to heparin [reference compound], in experiment [1] (setting [9]), the IL-6 response was greater than 100 fold and the TNF-α release result is “dramatic elevated vehicle response”. In experiment [2] (agent alone, WI-38 cells), the “C5b-9 formation on platelets” value is “did not have any effects”, the “Platelet binding to WI-38 cells” value is recorded as “did not have any effect at all”, the “Proportion of platelets bound to granulocytes” value was “did not have any effect at all” and the “Proportion of platelets bound to monocytes” value is given as “did not have any effect at all”. In addition, in experiment [2] (setting [10]), the “C5b-9 formation on platelets” value is reported as “clear concentration-dependent effect” and the “Platelet binding to WI-38 cells” value is listed as “potentiated the effects of IBsolvMIR®”. The “C5b-9 formation on platelets” value in experiment [2] (heparin 0.2 or 0.5 U/ml combined with IBsolvMIR 0.2 mg/ml, WI-38 cells, listed as Heparin) is “potentiated the effects of IBsolvMIR®”. In addition, the “WBC counts (WI-38 induced decrease)” value in experiment [4] was “does not affect WBC counts”.
